# In PMC7450046, “Making of water soluble curcumin to potentiate conventional antimicrobials by inducing apoptosis-like phenomena among drug-resistant bacteria” (Scientific Reports, 2020):
# Read-outs that look alike come from different tables or passages of the source.
# Columns and labels:
# [1] = tested on: Escherichia coli (507/2019); assay: MIC/MBC, broth micro-dilution; type: cell-based; conditions: for MIC: 18 h
# Method: (§1) The minimum inhibitory concentration of sCur was determined by the broth microdilution method as described earlier with minor modifications.
# (§2) Briefly, Staphylococcus aureus, Staphylococcus epidermidis, Klebsiella pneumoniae, Escherichia coli, and Pseudomonas aeruginosa were grown in 10 ml BHI broth aerobically for 18 h. Bacterial culture (500 µl) was then diluted to 1.5 ml fresh BHI broth. […] The stock was diluted in a series of two-fold dilutions ranging from 0.5 to 512 µg/ml in sterile BHI broth in microtiter wells. Each well of the 96-well microtiter plate was then inoculated with 190 µl of standardized cell suspension (10^5 CFU/ml) and incubated at 37 °C for next 18 h along with the 20 µl sCur suspension. The MIC was defined as the lowest concentration of sCur at which no obvious growth was observed.
# [2] = tested on: Klebsiella pneumoniae (10,825/2019); assay: MIC/MBC, broth micro-dilution; type: cell-based; conditions: for MIC: 18 h
# Method: as §1, §2
# [3] = tested on: Pseudomonas aeruginosa (2,412/2019); assay: MIC/MBC, broth micro-dilution; type: cell-based; conditions: for MIC: 18 h
# Method: as §1, §2
# [4] = tested on: Escherichia coli (ATCC25922); assay: MIC/MBC, broth micro-dilution; type: cell-based; conditions: for MIC: ATCC25922, 18 h
# Method: as §1
# (§3) Briefly, Staphylococcus aureus, Staphylococcus epidermidis, Klebsiella pneumoniae, Escherichia coli, and Pseudomonas aeruginosa were grown in 10 ml BHI broth aerobically for 18 h. Bacterial culture (500 µl) was then diluted to 1.5 ml fresh BHI broth. The sCur stock solution (1,024 µg/ml) was used for the study. The stock was diluted in a series of two-fold dilutions ranging from 0.5 to 512 µg/ml in sterile BHI broth in microtiter wells. Each well of the 96-well microtiter plate was then inoculated with 190 µl of standardized cell suspension (10^5 CFU/ml) and incubated at 37 °C for next 18 h along with the 20 µl sCur suspension. The MIC was defined as the lowest concentration of sCur at which no obvious growth was observed. Positive controls were having either ciprofloxacin or meropenem (for gram positive and gram negative respectively) while the sterile broth served as negative control and all the experiments were performed in triplicate.
# [5] = tested on: Klebsiella pneumoniae (ATCC700603); assay: MIC/MBC, broth micro-dilution; type: cell-based; conditions: for MIC: ATCC700603, 18 h
# Method: as §1, §3
# [6] = tested on: Pseudomonas aeruginosa (ATCC25619); assay: MIC/MBC, broth micro-dilution; type: cell-based; conditions: for MIC: ATCC25619, 18 h
# Method: as §1, §3
# [7] = tested on: Escherichia coli (507/2019); assay: Modified MIC in combination, checkerboard titration; type: cell-based
# Method: (§4) Serial dilutions of with these antibiotics were mixed in cation-adjusted Muller Hinton broth. The inoculum was prepared from the overnight grown colonies on MHA. The final bacterial concentration after inoculation was […].
# [8] = tested on: Klebsiella pneumoniae (10,825/2019); assay: as above; type: cell-based
# Method: as §4
# [9] = tested on: Pseudomonas aeruginosa (2,412/2019); assay: as above; type: cell-based
# Method: as §4
# [10] = tested on: Staphylococcus aureus (MRSA, 2,862/2019); assay: MIC/MBC, broth micro-dilution; type: cell-based; conditions: for MIC: 18 h
# Method: as §1, §2
# [11] = tested on: Staphylococcus aureus (ATCC29213); assay: MIC/MBC, broth micro-dilution; type: cell-based; conditions: for MIC: ATCC29213, 18 h
# Method: as §1, §3
# [12] = tested on: Staphylococcus epidermidis (ATCC35984); assay: MIC/MBC, broth micro-dilution; type: cell-based; conditions: for MIC: ATCC35984, 18 h
# Method: as §1, §3
# [13] = tested on: Gram-positive and Gram-negative MDR isolates; assay: MIC, broth micro-dilution, summary for MDR isolates; type: cell-based
# Method: as §1, §2
# Klebsiella pneumoniae [14] = assay: DPH flow cytometry, membrane dynamics; type: cell-based; conditions: 256 µg/ml
# Klebsiella pneumoniae [15] = assay: DiSC3-5 flow cytometry, membrane depolarization; conditions: 256 µg/ml
# Method: (§6) The membrane potential-sensitive dye DiSC3-5 was used to measure plasma membrane depolarization in bacterial membranes as described earlier with modifications[44]. The isolates were cultured in BHI broth overnight with subsequent dilution to adjust the absorbance to 0.05 at λmax 600. […] This was further incubated for 20 min with 1 µM DiSC3-5. Negative control was without any drug while native curcumin treated bacterial lane served as positive control. The fluorescence was measured employing Synergy H1 Hybrid Multi-Mode Reader with excitation at 622 nm and emission at 670 nm. Besides, the percentages of bacterial cells showing fluorescence were measured using the flow cytometry (C6 BD Accuri, Becton–Dickinson, San Jose, CA, USA).
# [16] = tested on: Staphylococcus aureus (MRSA, 2,862/2019); assay: microbe, parasite or virus in culture
# Method: as §4
# [17] = tested on: K. pneumoniae clinical isolate; assay: DPH steady-state fluorimetry, membrane dynamics; type: cell-based, Klebsiella pneumoniae; conditions: vancomycin alone; sCur at MIC alone 120 min; 8 µg/ml sCur with 16 µg/ml vancomycin 60 min; untreated 93.44 ± 2.646
# Method: (§5) We utilized the previously described method. Multidrug-resistant clinical isolates of Staphylococcus aureus, Staphylococcus epidermidis, Klebsiella pneumoniae, Escherichia coli, and Pseudomonas aeruginosa were treated with MIC concentration of sCur, vancomycin, and in combination (here data of only Klebsiella pneumoniae is shown). We incubated the treated cells for 120 min with shaking (100 rpm) at 37 °C, with subsequent harvesting. The pellet was re-suspended and re-pelleted. We fixed the pellet with 0.4% paraformaldehyde with subsequent resuspension in PBS. We later on incubated the re-suspended cells with 0.5 mM 1, 6-diphenyl-1, 3, 5-hexatriene (DPH) at 37 °C for 60 min, pelleted and washed thrice with PBS. The fluorescence intensity was monitored spectrophotometrically employing Synergy H1 Hybrid Multi-Mode Reader at 350 nm (excitation) and 425 nm (emission).
# MRSA clinical isolate = assay: DPH steady-state fluorimetry, membrane dynamics; type: cell-based, Staphylococcus aureus; conditions: vancomycin alone; 8 µg/ml sCur with 16 µg/ml vancomycin 60 min; untreated 89.86 ± 2.07
# Method: as §5
# [18] = tested on: multi-drug resistant K. pneumoniae and S. aureus isolates; assay: DiSC3-5 steady-state fluorimetry, membrane depolarization; type: cell-based, Klebsiella pneumoniae and Staphylococcus aureus; conditions: 8 µg/ml sCur with 16 µg/ml vancomycin, 120 min; vancomycin alone; untreated 18.67 ± 2.082
# Method: as §6
# Klebsiella pneumoniae [19] = assay: DCFH-DA flow cytometry, ROS production; type: cell-based; conditions: single agents, time not stated; untreated 0.1%
# [20] = tested on: S. aureus and K. pneumoniae cells; assay: Hydroxyl radical estimation with HPF dye; type: cell-based, Staphylococcus aureus and Klebsiella pneumoniae; conditions: one hour treatment, compared to untreated cells
# Method: The fluorescent reporter dye 3′-(p-hydroxyphenyl) fluorescein (HPF) was used for […] free radical detection as described previously. Overnight cultures were diluted 1:250 with 25 ml of BHI broth in 250 ml flasks and incubated at 37 °C, with shaking (200 rpm). Cells were grown until they reached the OD600 ~ 0.3. Five hundred microliters sample was taken from the flasks and transferred to an 8-well plate for treatments. […] The supernatant was exchanged with phosphate buffered saline supplemented with […] HPF with incubation in the dark at room temperature for 15 min and re-pelleted by centrifugation at 10,000 rpm. The supernatant was removed and replaced with 1 × PBS for fluorimetry measurements.
# [21] = antibiotic with native curcumin (8 µg/ml)
smiles,measurement,setting,value
"C[C@@H](O)[C@H]1C(=O)N2C(C(=O)O)=C(S[C@@H]3CN[C@H](C(=O)N(C)C)C3)[C@H](C)[C@H]12 [Meropenem, meropenem]",MIC,[1]; read-out: MIC,64 µg/mL
same,MBC,[2]; read-out: MBC,256 µg/mL
same,MBC,[3]; read-out: MBC,256 µg/mL
same,MIC,[4]; read-out: MIC,0.25 µg/mL
same,MBC,"[4]; ATCC25922, read-out: MBC",1 µg/mL
same,MIC,[5]; read-out: MIC,0.5 µg/mL
same,MBC,"[5]; ATCC700603, read-out: MBC",1 µg/mL
same,MIC,[6]; read-out: MIC,0.5 µg/mL
same,MBC,"[6]; ATCC25619, read-out: MBC",1 µg/mL
same,modified MIC,[7]; [21],64 µg/mL
same,modified MIC,[7]; antibiotic with sCur (8 µg/ml),1 µg/mL
same,modified MIC,[8]; antibiotic with sCur (8 µg/ml),2 µg/mL
same,modified MIC,[9]; antibiotic with sCur (8 µg/ml),4 µg/mL
"O=C(O)c1cn(C2CC2)c2cc(N3CCNCC3)c(F)cc2c1=O [Ciprofloxacin, ciprofloxacin]",MBC,[1]; read-out: MBC,64 µg/mL
same,MBC,[2]; read-out: MBC,128 µg/mL
same,MBC,[3]; read-out: MBC,256 µg/mL
same,MBC,[10]; read-out: MBC,64 µg/mL
same,MIC,[4]; read-out: MIC,0.25 µg/mL
same,MBC,"[4]; ATCC25922, read-out: MBC",0.5 µg/mL
same,MIC,[5]; read-out: MIC,0.5 µg/mL
same,MBC,"[5]; ATCC700603, read-out: MBC",1 µg/mL
same,MIC,[6]; read-out: MIC,0.5 µg/mL
same,MBC,"[6]; ATCC25619, read-out: MBC",1 µg/mL
same,MIC,[11]; read-out: MIC,0.25 µg/mL
same,MBC,"[11]; ATCC29213, read-out: MBC",0.5 µg/mL
same,MIC,[12]; read-out: MIC,< 0.25 µg/mL
same,MBC,"[12]; ATCC35984, read-out: MBC",0.5 µg/mL
same,MIC,"[13]; MDR isolates, antibiotics alone, read-out: MIC",64 µg/mL
"COc1cc(/C=C/C(=O)CC(=O)/C=C/c2ccc(O)c(OC)c2)ccc1O [Curcumin, curcumin]",MIC,[1]; read-out: MIC,512 µg/mL
same,MBC,[1]; read-out: MBC,≥ 1020 µg/mL
same,MIC,[2]; read-out: MIC,512 µg/mL
same,MBC,[2]; read-out: MBC,≥ 1020 µg/mL
same,MIC,[3]; read-out: MIC,≥ 1020 µg/mL
same,MBC,[3]; read-out: MBC,≥ 1020 µg/mL
same,MIC,[10]; read-out: MIC,256 µg/mL
same,MBC,[10]; read-out: MBC,≥ 1020 µg/mL
same,MIC,[4]; read-out: MIC,256 µg/mL
same,MBC,"[4]; ATCC25922, read-out: MBC",≥ 1020 µg/mL
same,MIC,[5]; read-out: MIC,256 µg/mL
same,MBC,"[5]; ATCC700603, read-out: MBC",≥ 1020 µg/mL
same,MIC,[6]; read-out: MIC,512 µg/mL
same,MBC,"[6]; ATCC25619, read-out: MBC",≥ 1020 µg/mL
same,MIC,[11]; read-out: MIC,128 µg/mL
same,MBC,"[11]; ATCC29213, read-out: MBC",≥ 1020 µg/mL
same,MIC,[12]; read-out: MIC,128 µg/mL
same,MBC,"[12]; ATCC35984, read-out: MBC",≥ 1020 µg/mL
same,"right shifting of the population, DPH",Klebsiella pneumoniae [14],significant right shifting
same,"right shifting of the population, DiSC3-5",Klebsiella pneumoniae [15],35%
"CN[C@H](CC(C)C)C(=O)N[C@H]1C(=O)N[C@@H](CC(N)=O)C(=O)N[C@H]2C(=O)N[C@H]3C(=O)N[C@H](C(=O)N[C@H](C(=O)O)c4cc(O)cc(O)c4-c4cc3ccc4O)[C@H](O)c3ccc(c(Cl)c3)Oc3cc2cc(c3O[C@@H]2O[C@H](CO)[C@@H](O)[C@H](O)[C@H]2O[C@H]2C[C@](C)(N)[C@H](O)[C@H](C)O2)Oc2ccc(cc2Cl)[C@H]1O [Vancomycin, vancomycin]",MBC,[1],≥ 1020 µg/mL
same,MIC,[1],512 µg/mL
same,MBC,[2],≥ 1020 µg/mL
same,MIC,[2],512 µg/mL
same,MBC,[3],≥ 1020 µg/mL
same,MIC,[3],1020 µg/mL
same,MBC,[10],2 µg/mL
same,MIC,[10],1 µg/mL
same,MBC,[4]; ATCC25922,≥ 1020 µg/mL
same,MIC,[4],256 µg/mL
same,MBC,[5]; ATCC700603,≥ 1020 µg/mL
same,MIC,[5],256 µg/mL
same,MBC,[6]; ATCC25619,≥ 1020 µg/mL
same,MIC,[6],1020 µg/mL
same,MBC,[11]; ATCC29213,2 µg/mL
same,MIC,[11],0.5 µg/mL
same,MBC,[12]; ATCC35984,1 µg/mL
same,MIC,[12],0.25 µg/mL
same,MIC,[13],512 µg/mL
same,MIC,[16]; read-out: Modified MIC,1 µg/mL
same,MIC,[16]; read-out: modified MIC,0.25 µg/mL
same,modified MIC,[7]; [21],512 µg/mL
same,modified MIC,[7]; antibiotic with sCur (8 µg/ml),8 µg/mL
same,modified MIC,[8]; [21],512 µg/mL
same,modified MIC,[8]; antibiotic with sCur (8 µg/ml),16 µg/mL
same,modified MIC,[9]; [21],1024 µg/mL
same,modified MIC,[9]; antibiotic with sCur (8 µg/ml),16 µg/mL
same,DPH fluorescence intensity,[17],89.21 ± 2.614 a.u.
same,DPH fluorescence intensity,MRSA clinical isolate,84.24 ± 1.875 a.u.
same,"right shifting of the population, DPH",Klebsiella pneumoniae [14],mild right shifting
same,DiSC3-5 fluorescence intensity,[18],32.07 ± 5.224 a.u.
same,"cell population that took up DCFDA, ROS generation (gate M3)",Klebsiella pneumoniae [19],38.6%
same,"HPF fluorescence, OH radical production",[20],fair increase in the fluorescence
same,"right shifting of the population, DiSC3-5",Klebsiella pneumoniae [15],0.6%
